# According to patent US10588897B2 (priority 2013, dated 2020):
# Like-named read-outs stand apart in the source and are kept apart here.
# Key:
# [1] = tested on: Escherichia coli type III secretion; conditions: literature; cited from earlier work
# [2] = tested on: Y. pseudotuberculosis T3SS (YopE secretion); format: cell-based, Yersinia pseudotuberculosis
# E. coli = conditions: found by Kimura et al.; cited from earlier work
# [3] = tested on: Y. pseudotuberculosis T3SS; format: cell-based, Yersinia pseudotuberculosis
# [4] = tested on: wildtype Y. pseudotuberculosis IP2666; format: cell-based, Yersinia pseudotuberculosis
# [5] = tested on: Yersinia pestis type III secretion; conditions: cited from earlier work
compound,measurement,setting,value
C/C=C\C=C\[C@@H]1O[C@](O)([C@H](CC)C(=O)NC/C=C/C=C(\C)[C@@H](OC)[C@@H](C)[C@@H]2O[C@H](/C=C/C=C/C=C(\C)C(=O)c3c(O)ccn(C)c3=O)[C@H](O)[C@@H]2O)[C@H](O)[C@H](O)C1(C)C [Aurodox],in vitro type III secretion by Escherichia coli,[1],reduce
same,inhibition of YopE secretion,"[2]; 12.5 μM, highest concentration used",did not significantly inhibit
same,concentrations cytotoxic to E. coli,E. coli,above 12.5 μM
C/C=C(\C)[C@H](O)[C@H](C)/C=C(C)/C=C/C/C(C)=C/Cc1nc(OC)c(OC)c(O)c1C [Piericidin A1],reduction of secretion of the T3SS effector YopE,"[2]; 71 μM, 2 hours at 37° C., relative to DMSO",65%
same,YopM-β-lactamase translocation,[3]; concentrations of 36 μM and greater,significantly diminished
same,Y. pseudotuberculosis in vitro growth (OD600 compound-treated/OD600 DMSO-treated),"[4]; 143 μM, 23° C., continuous shaking",do not affect
same,Y. pseudotuberculosis in vitro growth (OD600 compound-treated/OD600 DMSO-treated),"[4]; 143 μM, 37° C., continuous shaking",do not affect
same,Yersinia growth by optical density,"[4]; 26° C. and 37° C., all tested concentrations up to 143 μM",did not inhibit
CC(Oc1ccc(Cl)cc1Cl)C(=O)NCc1ccc2c(c1)OCO2 (stereo not drawn) [MBX 1641],in vitro type III secretion by Yersinia pestis,[5],reduce
C/C=C(\C)[C@H](O)[C@H](C)/C=C(C)/C=C/C/C(C)=C/Cc1nc(OC)cc(O)c1C [Mer-A 2026B],inhibition of YopE secretion at lower concentrations,[2],dose dependent decrease in inhibition
same,reduction of secretion of the T3SS effector YopE,[2],45%
same,YopM translocation into CHO cells,[3],significantly reduced
same,T3SS inhibition (YopM translocation into CHO cells),[3]; 71 µM,75%
same,Y. pseudotuberculosis in vitro growth (OD600 compound-treated/OD600 DMSO-treated),[4],do not affect
same,Yersinia growth by optical density,[4],did not inhibit
